Results published in patent US20230126893A1, “[(1,4,5-TRISUBSTITUTED-1H-PYRAZOL-3-YL)SULFANYL]ACETIC ACID DERIVATIVES, SALTS THEREOF, AND USE THEREOF AS ACTIVE HERBICIDAL INGREDIENTS” (BAYER AKTIENGESELLSCHAFT, priority 2020, published 2023).

What was measured:
Type in all cases: in vivo
[1] = test system: Tripleurospermum inodorum; assay: Post-emergence herbicidal effect against MATIN; conditions: 1280 g/ha, visual assessment about 3 weeks after treatment, 100% = plants have died, 0% = like control plants
Protocol: (§1) [table] 2. Post-emergence herbicidal effect and crop plant compatibility Seeds of monocotyledonous and dicotyledonous weed and crop plants are laid out in sandy loam soil in wood-fibre pots, covered with soil and cultivated in a greenhouse under good growth conditions. 2 to 3 weeks after sowing, the test plants are treated at the one-leaf stage. The compounds of the invention, formulated in the form of wettable powders (WP) or as emulsion concentrates (EC), are then sprayed onto the green parts of the plants as aqueous suspension or emulsion at a water application rate equating to 600 to 800 l/ha with addition of 0.2% wetting agent. After the test plants have been left to stand in the greenhouse under optimal growth conditions for about 3 weeks, the action of the preparations is assessed visually in comparison to untreated controls (herbicidal action in percent (%): 100% activity=the plants have died, 0% activity=like control plants).

Stellaria media [2] = assay: Pre-emergence herbicidal effect against STEME; conditions: 1280 g/ha, visual score after 3 weeks, 100% = plants have died, 0% = like control plants
Text: (§2) 1. Pre-emergence herbicidal effect and crop plant compatibility Seeds of monocotyledonous and dicotyledonous weed plants and crop plants are laid out in sandy loam soil in wood-fibre pots and covered with soil. The compounds of the invention, formulated in the form of wettable powders (WP) or as emulsion concentrates (EC), are then applied to the surface of the covering soil as aqueous suspension or emulsion at a water application rate equating to 600 to 800 L/ha with addition of 0.2% wetting agent. After the treatment, the pots are placed in a greenhouse and kept under good growth conditions for the trial plants. The damage to the test plants is scored visually after a test period of 3 weeks by comparison with untreated controls (herbicidal activity in percent (%): 100% activity=the plants have died, 0% activity=like control plants). [table]

Veronica persica [3] = assay: Post-emergence herbicidal effect against VERPE; conditions: 1280 g/ha, visual assessment about 3 weeks after treatment, 100% = plants have died, 0% = like control plants
Protocol: as §1

Poa annua [4] = assay: Post-emergence herbicidal effect against POAAN; conditions: 1280 g/ha, visual assessment about 3 weeks after treatment, 100% = plants have died, 0% = like control plants
Protocol: as §1

Alopecurus myosuroides [5] = assay: Pre-emergence herbicidal effect against ALOMY; conditions: 1280 g/ha, visual score after 3 weeks, 100% = plants have died, 0% = like control plants
Text: as §2

Lolium rigidum = assay: Pre-emergence herbicidal effect against LOLRI; conditions: 1280 g/ha, visual score after 3 weeks, 100% = plants have died, 0% = like control plants
Text: as §2

[6] = test system: Tripleurospermum inodorum; assay: Pre-emergence herbicidal effect against MATIN; conditions: 1280 g/ha, visual score after 3 weeks, 100% = plants have died, 0% = like control plants
Text: as §2

Echinochloa crus-galli [7] = assay: Pre-emergence herbicidal effect against ECHCG; conditions: 1280 g/ha, visual score after 3 weeks, 100% = plants have died, 0% = like control plants
Text: as §2

Alopecurus myosuroides [8] = assay: Post-emergence herbicidal effect against ALOMY; conditions: 1280 g/ha, visual score after about 3 weeks, 100% = plants have died, 0% = like control plants
Protocol: as §1

Veronica persica [9] = assay: Pre-emergence herbicidal effect against VERPE; conditions: 1280 g/ha, visual score after 3 weeks, 100% = plants have died, 0% = like control plants
Text: as §2

Echinochloa crus-galli [10] = assay: Post-emergence herbicidal effect against ECHCG; conditions: 1280 g/ha, visual score after about 3 weeks, 100% = plants have died, 0% = like control plants
Protocol: as §1

Poa annua [11] = assay: Pre-emergence herbicidal effect against POAAN; conditions: 1280 g/ha, visual score after 3 weeks, 100% = plants have died, 0% = like control plants
Text: as §2

Setaria viridis [12] = assay: Post-emergence herbicidal effect against SETVI; conditions: 1280 g/ha, visual assessment about 3 weeks after treatment, 100% = plants have died, 0% = like control plants
Protocol: as §1

Setaria viridis [13] = assay: Pre-emergence herbicidal effect against SETVI; conditions: 1280 g/ha, visual score after 3 weeks, 100% = plants have died, 0% = like control plants
Text: as §2

Bassia scoparia = assay: Post-emergence herbicidal effect against KCHSC; conditions: 1280 g/ha, visual assessment about 3 weeks after treatment, 100% = plants have died, 0% = like control plants
Protocol: as §1

Stellaria media [14] = assay: Post-emergence herbicidal effect against STEME; conditions: 1280 g/ha, visual assessment about 3 weeks after treatment, 100% = plants have died, 0% = like control plants
Protocol: as §1

Abutylon threophrasti = assay: Post-emergence herbicidal effect against ABUTH; conditions: 1280 g/ha, visual assessment about 3 weeks after treatment, 100% = plants have died, 0% = like control plants
Protocol: as §1

Digitaria sanguinalis = assay: Pre-emergence herbicidal effect against DIGSA; conditions: 1280 g/ha, visual score after 3 weeks, 100% = plants have died, 0% = like control plants
Text: as §2

SMILES	Post-emergence action against MATIN [1] [%]	Pre-emergence action against STEME (Stellaria media [2]) [%]	Post-emergence action against VERPE (Veronica persica [3]) [%]	Post-emergence action against POAAN (Poa annua [4]) [%]	Pre-emergence action against ALOMY (Alopecurus myosuroides [5]) [%]	Pre-emergence action against LOLRI (Lolium rigidum) [%]	Pre-emergence action against MATIN [6] [%]	Pre-emergence action against ECHCG (Echinochloa crus-galli [7]) [%]	Post-emergence action against ALOMY (Alopecurus myosuroides [8]) [%]	Pre-emergence action against VERPE (Veronica persica [9]) [%]	Post-emergence action against ECHCG (Echinochloa crus-galli [10]) [%]	Pre-emergence action against POAAN (Poa annua [11]) [%]	Post-emergence action against SETVI (Setaria viridis [12]) [%]	Pre-emergence action against SETVI (Setaria viridis [13]) [%]	Post-emergence action against KCHSC (Bassia scoparia) [%]	Post-emergence action against STEME (Stellaria media [14]) [%]	Post-emergence action against ABUTH (Abutylon threophrasti) [%]	Pre-emergence action against DIGSA (Digitaria sanguinalis) [%]
CCOC(=O)CSc1nn(-c2ccccc2F)c(-c2ccc(Cl)nc2)c1Br [II-012]	90	100	90	100	90	100	100	90	90	100	90	100	90	90	–	–	–	–
COC(=O)CCNC(=O)CSc1nn(-c2ccccc2F)c(-c2cccnc2)c1Br [VII-006]	90	90	90	100	90	–	90	90	90	90	–	100	90	90	90	–	–	–
COC(=O)CN(C)C(=O)CSc1nn(-c2ccccc2F)c(-c2ccc(F)c(F)c2)c1Br [VII-011]	–	–	90	–	90	–	90	–	90	90	–	100	–	–	90	–	–	–
O=C(O)CSc1nn(-c2ccccc2F)c(-c2cccnc2)c1Br [II-017]	90	90	90	100	90	–	90	90	90	100	90	100	90	90	–	–	–	–
CCOC(=O)CNC(=O)CSc1nn(-c2ccccc2F)c(-c2ccc(F)c(F)c2)c1Br [VII-003]	90	100	90	100	–	100	100	100	100	100	–	100	–	100	–	90	–	–
COC(=O)CNC(=O)CSc1nn(-c2ccccc2F)c(-c2ccccc2)c1Br [VII-005]	100	100	100	100	90	90	100	90	100	100	90	100	100	90	100	90	100	–
CCOC(=O)CSc1nn(-c2ccccc2OC)c(-c2ccc(F)cc2)c1Br [Example I-023]	–	100	90	–	90	–	100	–	–	100	–	100	–	90	–	–	–	100
CCOC(=O)CSc1nn(-c2ccc(Cl)cc2Cl)c(-c2ccc(F)c(F)c2)c1Br [Example I-026]	–	–	90	–	–	–	100	–	–	–	–	–	–	–	–	–	–	–
COC(=O)CNC(=O)CSc1nn(-c2ccccc2F)c(-c2ccc(F)c(F)c2)c1[N+](=O)[O-] [VII-004]	–	100	–	–	–	–	–	–	–	–	–	100	–	–	–	–	–	–
CCOC(=O)CSc1nn(-c2ccccc2F)c(-c2ccc(Br)nc2)c1Br [II-015]	90	100	90	90	–	–	100	–	–	–	–	90	–	–	–	–	90	–
COC(=O)CN(C)C(=O)CSc1nn(-c2ccccc2F)c(-c2cccnc2)c1Br [VII-008]	–	–	90	–	–	–	–	–	–	–	–	90	–	–	90	–	90	–
O=C(O)CSc1nn(-c2cccc(F)c2F)c(-c2cncnc2)c1Br [III-005]	90	90	90	–	–	–	90	90	–	90	90	100	–	90	90	–	90	–
O=C(O)CSc1nn(-c2ccccc2F)c(-c2cnccn2)c1Br [VI-002]	90	90	90	–	–	–	90	90	90	–	90	100	–	90	–	–	–	–
